Experimental data taken from publication PMC2361661 (British Journal of Cancer, 2005).
Several values for one entry are separate records, joined by “and”; a condition that tells them apart may be missing. Identical values can stand only once. Like-named read-outs stand apart in the source and are kept apart here.

Key:
[1] = target: T1, thymidylate synthase (TS) (Homo sapiens, UniProt P04818); conditions: ref Ford et al, 2002, cited from earlier work
T1 construct: endogenous in cells; host or cells: tissues of treated patients (in vivo)
T1 sequence (P04818 2-313 limits assumed): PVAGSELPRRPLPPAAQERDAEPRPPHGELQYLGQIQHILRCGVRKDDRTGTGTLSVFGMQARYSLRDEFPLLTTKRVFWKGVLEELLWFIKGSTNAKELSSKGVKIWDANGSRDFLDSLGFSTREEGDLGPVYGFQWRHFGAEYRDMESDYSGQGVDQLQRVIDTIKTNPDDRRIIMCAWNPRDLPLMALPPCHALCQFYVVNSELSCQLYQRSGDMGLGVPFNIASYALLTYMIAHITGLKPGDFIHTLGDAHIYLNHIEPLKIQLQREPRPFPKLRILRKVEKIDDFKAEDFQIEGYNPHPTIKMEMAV

[2] = tested on: ovarian cancer; conditions: relapsed ovarian cancer, cited from earlier work
[3] = tested on: folyl-polyglutamate synthase (FPGS); set-up: method as in Jackman et al, 1993; conditions: compared to RTX; ref Jackman et al, 1993; cited from earlier work
[4] = tested on: human ovarian tumour cell lines; conditions: ref Kelland et al, 1995; cited from earlier work
[5] = cited from earlier work
[6] = clinical; conditions: human, plasma
Procedure: (§1) Prior to each assay the plasma samples were centrifuged at 3000 g for 5 min × 2, to sediment precipitants that would block pipette tips.
(§2) All dilutions required for the ELISA were performed by Multiprobe II automated liquid handling equipment (Perkin-Elmer, Cambridge, UK). […] Following further incubation and washing steps, the optical absorbance was read and plotted using a four-parameter logistic curve fitted by nonlinear regression as previously described ([Aherne et al, 2001]).
(§3) PK analysis was performed using WinNonlin Software, version 3.2 (Pharsight Corp., CA, USA). […] The following PK parameters were evaluated: maximum plasma concentration (Cmax), area under the plasma concentration–time curve (AUC), total body clearance (Cl), volume of distribution at steady state (Vss) and the terminal half-life (t1/2).

[7] = BGC9331 plasma pharmacokinetics by ELISA in phase I patients; conditions: for Median Cmax / Median plasma clearance: ±s.d.; for AUClast / Cl_obs / Cmax / HL_Lambda_z / Vz_obs: BGC9331 65 mg m^−2, carboplatin AUC 5
Procedure: as §1, §2, §3

[8] = set-up: method as in Plummer et al, 2003; conditions: ref Plummer et al, 2003, cited from earlier work; for AUC: mass spectroscopy
[9] = Carboplatin pharmacokinetics by flameless atomic absorption spectrophotometry (FAAS); conditions: free carboplatin, carboplatin AUC 5 with BGC9331
Procedure: Carboplatin was measured by FAAS. This method has been previously described ([LeRoy et al, 1977]). Samples were analysed on a Perkin-Elmer HGA800, AA300 Flameless atomic absorption spectrophotometer, and a Platinum Lumina HCC lamp (Perkin-Elmer, Beaconsfield, UK).
Calibration standards were prepared individually for each assay batch by adding Carboplatin standards to control human plasma and ultrafiltrate. A blank was made using either plasma or ultrafiltrate only. A range of standards was made ranging from 5 to 50 ng ml^−1 Pt (plasma samples) to 10–150 ng ml^−1 Pt (ultrafiltrates).
For plasma analysis, three QCs were included in duplicate, ranging from low (15ng ml^−1 Pt) to medium (25 ng ml^−1 Pt) and high (45 ng ml^−1 Pt), by diluting stock solutions with plasma. For ultrafiltrate analysis low (20 ng ml^−1 Pt), medium (60 ng ml^−1 Pt) and high (120 ng ml^−1 Pt) QCs and stock solutions were diluted with plasma ultrafiltrate. A run was acceptable if four out of six QCs were within 15% of nominal concentration.

[10] = dose level 1 (BGC9331 40 mg m^−2, carboplatin AUC 5), day 1
[11] = dose level 1 (BGC9331 40 mg m^−2, carboplatin AUC 5), day 8
[12] = dose level 2 (BGC9331 65 mg m^−2, carboplatin AUC 5), day 1
[13] = dose level 2 (BGC9331 65 mg m^−2, carboplatin AUC 5), day 8

O=c1[nH]cc(F)c(=O)[nH]1 [5-FU, 5-fluorouracil]
peak dUrd elevation ([1]; bolus 5-FU): 235±125% | peak dUrd elevation ([1]; infusional 5-FU): 228±86% | response rate ([2]; ref Look et al, 1995): 14%

C#CCN(Cc1ccc2nc(N)[nH]c(=O)c2c1)c1ccc(C(=O)N[C@@H](CCC(=O)O)C(=O)O)cc1 [CB3717, N10-propargyl-5,8-dideazafolic acid]
substrate for FPGS [3]: relatively poor substrate | cross-resistance to platinum-based agents [4]: non crossresistance

C#CCN(Cc1cc2c(=O)[nH]c(C)nc2cc1C)c1ccc(C(=O)N[C@@H](CCc2nnn[nH]2)C(=O)O)c(F)c1 [BGC9331]
patients with grade 3 or 4 neutropaenia ([5]; BGC9331 130 mg m^−2 days 1 and 8 with cisplatin 75 mg m^−2, ref Bilenker et al, 2004): three of the four | patients affected by diarrhoea ([5]; previous studies, ref Rader et al, 2003): 36% | recommended single-agent phase II dose ([5]; ref Plummer et al, 2003): 130 mg m^−2 | AUC ([6]; 40 mg): 110 µg·h/mL | Cmax ([6]; 40 mg): 7260 ng/mL | AUC ([6]; 65 mg): 140 µg·h/mL | Cmax ([6]; 65 mg): 10400 ng/mL | Tmax ([6]; 65 mg): 30 min | Median Cmax [7, 10]: 11.2 ± 2.5 µg/mL and 11.21 µg/mL | Median plasma clearance [7, 10]: 478 ± 61 mL/h | Median Cmax [7, 11]: 7.3 ± 5.0 µg/mL | Median plasma clearance [7, 11]: 971 ± 265 mL/h | Median Cmax [7, 12]: 16.5 ± 2.4 µg/mL and 16.54 µg/mL | Median plasma clearance [7, 12]: 1197 ± 580 mL/h | Median Cmax [7, 13]: 10.4 ± 4.0 µg/mL | Median plasma clearance [7, 13]: 746 ± 584 mL/h | AUClast ([7]; patient 4, administration 1): 90.4 µg·mL/h | Cl_obs ([7]; patient 4, administration 1): 1197.5 mL/h | Cmax ([7]; patient 4, administration 1): 16.8 µg/mL | HL_Lambda_z ([7]; patient 4, administration 1): 18.2 h | Vz_obs ([7]; patient 4, administration 1): 31423.8 mL | AUClast ([7]; patient 4, administration 2): 68.4 µg·mL/h | Cl_obs ([7]; patient 4, administration 2): 1646.5 mL/h | Cmax ([7]; patient 4, administration 2): 10.4 µg/mL | HL_Lambda_z ([7]; patient 4, administration 2): 27.8 h | Vz_obs ([7]; patient 4, administration 2): 66088.6 mL | AUClast ([7]; patient 5, administration 1): 264.6 µg·mL/h | Cl_obs ([7]; patient 5, administration 1): 378.4 mL/h | Cmax ([7]; patient 5, administration 1): 16.6 µg/mL | HL_Lambda_z ([7]; patient 5, administration 1): 25.5 h | Vz_obs ([7]; patient 5, administration 1): 13891.3 mL | AUClast ([7]; patient 5, administration 2): 193.3 µg·mL/h | Cl_obs ([7]; patient 5, administration 2): 549.2 mL/h | Cmax ([7]; patient 5, administration 2): 16.7 µg/mL | Vz_obs ([7]; patient 5, administration 2): 17208.1 mL | AUClast ([7]; patient 6, administration 2): 141.3 µg·mL/h | Cl_obs ([7]; patient 6, administration 2): 746.0 mL/h | Cmax ([7]; patient 6, administration 2): 9.3 µg/mL | HL_Lambda_z ([7]; patient 6, administration 2): 28.1 h | Vz_obs ([7]; patient 6, administration 2): 30257.3 mL | AUC ([8]; BGC9331 monotherapy 42 mg m^−2): 176 µg·h/mL | Cmax ([8]; BGC9331 monotherapy 42 mg m^−2): 10.4 µg/mL | AUC ([8]; BGC9331 monotherapy 69 mg m^−2): 322 µg·h/mL | Cmax ([8]; BGC9331 monotherapy 69 mg m^−2): 19.1 µg/mL

Cc1nc2ccc(CN(C)c3ccc(C(=O)N[C@@H](CCC(=O)O)C(=O)O)s3)cc2c(=O)[nH]1 [raltitrexed]
day on which dUrd reapproaches baseline ([1]; RTX on a 21-day cycle): ~15 days | peak percentage rise of dUrd ([1]; RTX on a 21-day cycle): 349±128% | response rate ([2]; ref Gore et al, 1995): 7% | response rate ([2]; ref Muggia et al, 1998): 11% | cross-resistance to platinum-based agents [4]: non crossresistance

N.N.O=C([O-])C1(C(=O)[O-])CCC1.[Pt+2] [carboplatin]
Alpha_HL ([9]; patient 1, dose level 1): 2.2 h | Beta_HL ([9]; patient 1, dose level 1): 50.3 h | CL ([9]; patient 1, dose level 1): 8.7 L/h | V2 ([9]; patient 1, dose level 1): 91.2 L | Vss ([9]; patient 1, dose level 1): 123.3 L | Alpha_HL ([9]; patient 3, dose level 1): 1.2 h | Beta_HL ([9]; patient 3, dose level 1): 8.2 h | CL ([9]; patient 3, dose level 1): 4.8 L/h | V2 ([9]; patient 3, dose level 1): 15.1 L | Vss ([9]; patient 3, dose level 1): 27.1 L | Alpha_HL ([9]; patient 4, dose level 2): 2.4 h | Beta_HL ([9]; patient 4, dose level 2): 100.9 h | CL ([9]; patient 4, dose level 2): 7.0 L/h | V2 ([9]; patient 4, dose level 2): 158.5 L | Vss ([9]; patient 4, dose level 2): 186.5 L | Alpha_HL ([9]; patient 5, dose level 2): 1.5 h | Beta_HL ([9]; patient 5, dose level 2): 92.0 h | CL ([9]; patient 5, dose level 2): 6.0 L/h | V2 ([9]; patient 5, dose level 2): 101.0 L | Vss ([9]; patient 5, dose level 2): 115.6 L | Alpha_HL ([9]; patient 6, dose level 2): 1.8 h | Beta_HL ([9]; patient 6, dose level 2): 60.4 h | CL ([9]; patient 6, dose level 2): 6.7 L/h | V2 ([9]; patient 6, dose level 2): 88.9 L | Vss ([9]; patient 6, dose level 2): 109.7 L | Alpha_HL ([9]; patient 14, dose level 3): 0.4 h | Beta_HL ([9]; patient 14, dose level 3): 2.6 h | CL ([9]; patient 14, dose level 3): 6.1 L/h | V2 ([9]; patient 14, dose level 3): 8.6 L | Vss ([9]; patient 14, dose level 3): 16.5 L
